The values that follow come from patent US10329289B2, “6,7-dihydro-5H-pyrrolo[3,4-B]pyridin-5-one allosteric modulators of the M4 muscarinic acetylcholine receptor” (Merck Sharp & Dohme Corp., priority 2015, dated 2019).

pEC50: −log10 of the molar value.

This assay addresses T1, human M4 muscarinic acetylcholine receptor (Homo sapiens, UniProt P08173).
T1 construct: expressed in transfected cells; host or cells: CHO-K1
T1 sequence (P08173 1-479): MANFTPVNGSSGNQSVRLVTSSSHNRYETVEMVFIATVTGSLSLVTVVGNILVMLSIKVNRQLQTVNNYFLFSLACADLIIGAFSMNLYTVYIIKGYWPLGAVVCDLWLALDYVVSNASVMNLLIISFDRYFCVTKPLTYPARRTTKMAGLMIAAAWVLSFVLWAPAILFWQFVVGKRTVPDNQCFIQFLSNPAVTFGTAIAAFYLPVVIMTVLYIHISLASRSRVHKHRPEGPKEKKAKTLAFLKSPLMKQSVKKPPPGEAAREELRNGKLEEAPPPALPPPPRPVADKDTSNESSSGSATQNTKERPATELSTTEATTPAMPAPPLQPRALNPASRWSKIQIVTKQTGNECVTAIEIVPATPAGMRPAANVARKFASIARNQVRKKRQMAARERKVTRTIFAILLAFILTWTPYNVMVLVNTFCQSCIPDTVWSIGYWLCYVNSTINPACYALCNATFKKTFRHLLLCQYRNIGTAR
As to the kind of experiment: human FLIPR-based M4 PAM assay (Ca2+ mobilization, CHO-K1 cells with human M4 receptor and Gαqi5). It is filed as cell-based. The note with it: acetylcholine at 20% of maximum response, read-out: M4 PAM IP. The method in brief:
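CHO-K1 cells stably expressing human M4 and chimeric Gαqi5 were dye-loaded ~1 h at 37 °C and read for Ca2+ fluorescence. Compound followed by acetylcholine at an EC20 (sometimes an EC70 third addition); inflection point from a 4-parameter logistic fit.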
(A change in cytosolic calcium serves as a functional read-out for many receptors and channels.)
As to `Cc1cc2c(nc1N1CCC(Oc3ccc4c(c3)C[S+]([O-])C4)CC1)CNC2=O` (single isomer, unassigned) [Example 168B], the pEC50 was 6.78. The same measure for `Cc1cc2c(nc1N1CC[C@H](Oc3cccnc3)[C@H](F)C1)CNC2=O` (single isomer, unassigned) [Example 165, 2-((3R,4S) or (3S,4R)-3-fluoro-4-(pyridin-3-yloxy)piperidin-1-yl)-3-methyl-6,7-dihydro-5H-pyrrolo[3,4-b]pyridin-5-one]: 6.33. The same measure for `Cc1c(N2CCC(Oc3ccc4c(c3)C[C@H](O)C4)CC2)nc2c(c1C)C(=O)NC2` [Example 334A, (R)-2-(4-((2-hydroxy-2,3-dihydro-1H-inden-5-yl)oxy)piperidin-1-yl)-3,4-dimethyl-6,7-dihydro-5H-pyrrolo[3,4-b]pyridin-5-one]: 7.17. Then `COCCN1Cc2nc(N3CCC(Oc4ccc5c(c4)COC5)CC3)c(C)c(C)c2C1=O` [Example 260A, 2-(4-((1,3-dihydro-2-benzofuran-5-yl)oxy)piperidin-1-yl)-6-(2-methoxyethyl)-3,4-dimethyl-6,7-dihydro-5H-pyrrolo[3,4-b]pyridin-5-one], with 7.37. With `Cc1cc2c(nc1N1CCC(Oc3cccc(C#N)c3)CC1)CN(C)C2=O` [Example 11, 3-((1-(3,6-dimethyl-5-oxo-6,7-dihydro-5H-pyrrolo[3,4-b]pyridin-2-yl)piperidin-4-yl)oxy)benzonitrile], the pEC50 was 7.42. The same measure for `COC(=O)Cn1ncc2cc(OC3CCN(c4nc5c(cc4C)C(=O)NC5)CC3)ccc21` [Example 211, methyl 2-(5-((1-(3-methyl-5-oxo-6,7-dihydro-5H-pyrrolo[3,4-b]pyridin-2-yl)piperidin-4-yl)oxy)-1H-indazol-1-yl)acetate]: 6.67; for `Cc1cc2c(nc1N1CC[C@H](Oc3cccc(C#N)c3)[C@@H](O)C1)CNC2=O` [Example 43B, 3-(((3S,4S)-3-hydroxy-1-(3-methyl-5-oxo-6,7-dihydro-5H-pyrrolo[3,4-b]pyridin-2-yl)piperidin-4-yl)oxy)benzonitrile]: 6.44. Then `Cc1cc2c(nc1N1CCC(Oc3cnc4c(c3)COC4)CC1)CN(CCO)C2=O` [Example 236A, 2-(4-((5,7-dihydrofuro[3,4-b]pyridin-3-yl)oxy)piperidin-1-yl)-6-(2-hydroxyethyl)-3-methyl-6,7-dihydro-5H-pyrrolo[3,4-b]pyridin-5-one], with 6.84; and `COc1ccc(OC2CCN(c3nc4c(cc3C)C(=O)N(Cc3ccncc3)C4)CC2)cn1` [Example 259, 2-(4-((6-methoxypyridin-3-yl)oxy)piperidin-1-yl)-3-methyl-6-(pyridin-4-ylmethyl)-6,7-dihydro-5H-pyrrolo[3,4-b]pyridin-5-one], with 7.06; and `CCc1cc2c(nc1N1CCC(Oc3ccc4c(c3)OCC4)CC1)[C@H](CO)N(C)C2=O` [Example 366, (R)-2-(4-((2,3-dihydrobenzofuran-6-yl)oxy)piperidin-1-yl)-3-ethyl-7-(hydroxymethyl)-6-methyl-6,7-dihydro-5H-pyrrolo[3,4-b]pyridin-5-one], with 5.91. Then `Cc1cc2c(nc1N1CCC(Oc3ccc4c(c3)CCOCC4)CC1)CNC2=O` [Example 321B, 3-methyl-2-(4-((1,2,4,5-tetrahydrobenzo[d]oxepin-7-yl)oxy)piperidin-1-yl)-6,7-dihydro-5H-pyrrolo[3,4-b]pyridin-5-one], with 7.04; and `Cc1cc2c(nc1N1CCC(Oc3ccc4c(c3)OCCC4)CC1)CNC2=O` [Example 113, 2-(4-(chroman-7-yloxy)piperidin-1-yl)-3-methyl-6,7-dihydro-5H-pyrrolo[3,4-b]pyridin-5-one], with 7.30. `Cc1cc2c(nc1N1CCC(Oc3ccc(F)c(F)c3)CC1)[C@H](CO)N(C)C2=O` [Example 348, (R)-2-(4-(3,4-difluorophenoxy)piperidin-1-yl)-7-(hydroxymethyl)-3,6-dimethyl-6,7-dihydro-5H-pyrrolo[3,4-b]pyridin-5-one]: the pEC50 is 5.09. `COc1ccc(OC2CCN(c3nc4c(cc3C)C(=O)N(C)C4(C)C)CC2)cn1` [Example 17, 2-(4-((6-methoxypyridin-3-yl)oxy)piperidin-1-yl)-3,6,7,7-tetramethyl-6,7-dihydro-5H-pyrrolo[3,4-b]pyridin-5-one]: the pEC50 was 5.93.

`Cc1cc2c(nc1N1CCC(Oc3ccc4c(c3)C(=O)NCC4)CC1)CNC2=O` [Example 135, 7-((1-(3-methyl-5-oxo-6,7-dihydro-5H-pyrrolo[3,4-b]pyridin-2-yl)piperidin-4-yl)oxy)-3,4-dihydroisoquinolin-1(2H)-one]: the pEC50 is 6.66. Then `CCN1Cc2nc(N3CCC(Oc4cccc(C#N)c4)CC3)c(C)cc2C1=O` [Example 242, 3-((1-(6-ethyl-3-methyl-5-oxo-6,7-dihydro-5H-pyrrolo[3,4-b]pyridin-2-yl)piperidin-4-yl)oxy)benzonitrile], with 7.13; and `Cc1cc2c(nc1N1CC[C@@H](Oc3ccc4c(c3)COC4)[C@@H](F)C1)CN(CCO)C2=O` [Example 255, 2-((3S,4R)-4-((1,3-dihydro-2-benzofuran-5-yl)oxy)-3-fluoropiperidin-1-yl)-6-(2-hydroxyethyl)-3-methyl-6,7-dihydro-5H-pyrrolo[3,4-b]pyridin-5-one], with 7.54. The same measure for `COCc1ccc(OC2CCN(c3nc4c(cc3C)C(=O)NC4)CC2)cc1` [Example 195, 2-(4-(4-(methoxymethyl)phen-oxy)piperidin-1-yl)-3-methyl-6,7-dihydro-5H-pyrrolo[3,4-b]pyridin-5-one]: 7.17; for `Cc1cc2c(nc1N1CC[C@@H](Oc3cccnc3)[C@@H](F)C1)CNC2=O` (single isomer, unassigned) [Example 166, 2-((3S,4R) or (3R,4S)-3-fluoro-4-(pyridin-3-yloxy)piperidin-1-yl)-3-methyl-6,7-dihydro-5H-pyrrolo[3,4-b]pyridin-5-one]: 7.05; for `Cc1cc2c(nc1N1CC[C@@H](Oc3ccc4c(c3)COC4)[C@H](F)C1)[C@@H](CO)N(C)C2=O` [Example 280A, (S)-2-((3R,4R)-4-((1,3-dihydro-2-benzofuran-5-yl)oxy)-3-fluoropiperidin-1-yl)-7-(hydroxymethyl)-3,6-dimethyl-6,7-dihydro-5H-pyrrolo[3,4-b]pyridin-5-one]: 7.85. The same measure for `CCc1cc2c(nc1N1CC[C@@H](Oc3ccc4c(cnn4C)c3)[C@@H](F)C1)CN(CCO)C2=O` [Example 240A, 3-ethyl-2-((3S,4R)-3-fluoro-4-((1-methyl-1H-indazol-5-yl)oxy)piperidin-1-yl)-6-(2-hydroxyethyl)-6,7-dihydro-5H-pyrrolo[3,4-b]pyridin-5-one]: 6.90; for `CCc1cc2c(nc1N1CCC(Oc3cncc(C)c3)CC1)CNC2=O` [Example 173A, 3-ethyl-2-(4-((5-methylpyridin-3-yl)oxy)piperidin-1-yl)-6,7-dihydro-5H-pyrrolo[3,4-b]pyridin-5-one]: 6.68; for `Cc1cc2c(nc1N1CCC(Oc3cc(F)c4[nH]ncc4c3)CC1)CNC2=O` [Example 317, 2-(4-((7-Fluoro-1H-indazol-5-yl)ox)piperidin-1-yl)-3-methyl-6,7-dihydro-5H-pyrrolo[3,4-b]pyridin-5-one]: 6.90. Regarding `Cc1c(N2CCC(Oc3ccc4c(c3)COC4)CC2)nc2c(c1C)C(=O)N(CC(N)=O)C2` [Example 310A, 2-(2-(4-((1,3-dihydro-2-benzofuran-5-yl)oxy)piperidin-1-yl)-3,4-dimethyl-5-oxo-5,7-dihydro-6H-pyrrolo[3,4-b]pyridin-6-yl)acetamide], the pEC50 is 7.46.

On to `CCc1cc2c(nc1N1CCC(Oc3ccc4c(c3)COCC4)CC1)CN(CCO)C2=O` [Example 267A, 3-ethyl-6-(2-hydroxyethyl)-2-(4-(isochroman-7-yloxy)piperidin-1-yl)-6,7-dihydro-5H-pyrrolo[3,4-b]pyridin-5-one], for which the pEC50 was 6.99. Then `COc1ccc(OC2CCN(c3nc4c(cc3C)C(=O)N(CCN(C)C)C4)CC2)cn1` [Example 235, 6-(2-(dimethylamino)ethyl)-2-(4-((6-methoxypyridin-3-yl)oxy)piperidin-1-yl)-3-methyl-6,7-dihydro-5H-pyrrolo[3,4-b]pyridin-5-one], with 6.49; and `Cc1cc2c(nc1N1CCC(Oc3ccc(O[C@H](C)CO)nc3)CC1)CNC2=O` [Example 143B, (R)-2-(4-((6-((1-hydroxypropan-2-yl)oxy)pyridin-3-yl)oxy)piperidin-1-yl)-3-methyl-6,7-dihydro-5H-pyrrolo[3,4-b]pyridin-5-one], with 6.93; and `Cc1cc2c(nc1N1CC[C@@H](Oc3cccc(C#N)c3)[C@H](F)C1)CNC2=O` [Example 21, 3-(((3R,4R)-3-fluoro-1-(3-methyl-5-oxo-6,7-dihydro-5H-pyrrolo[3,4-b]pyridin-2-yl)piperidin-4-yl)oxy)benzonitrile], with 7.30. Consider `Cc1cc2c(nc1N1CCC(Oc3ccc(F)cc3)CC1)CN(CCO)C2=O` [Example 264, 2-(4-(4-Fluorophenoxy)piperidin-1-yl)-6-(2-hydroxyethyl)-3-methyl-6,7-dihydro-5H-pyrrolo[3,4-b]pyridin-5-one], for which the pEC50 was 7.44.
